According to patent publication US20230158025A1 (UNIVERSITY OF UTAH RESEARCH FOUNDATION, priority 2020, published 2023):
Like-named read-outs stand apart in the source and are kept apart here.

Key:
[1] = biological target: recombinant human GALK1 (Homo sapiens, UniProt P51570); test: hGALK1 biochemical activity assay (Kinase-Glo Plus, ATP depletion)
Summary of the method: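 Recombinant human or mouse GALK1 (5 nM, with 100 μM galactose, in the added enzyme solution) was run with ATP (35 μM in the substrate solution) in HEPES pH 8.0 buffer. Compounds were tested at 11 1/3-step concentrations from 57.4 μM to 0.97 nM. After 1 h at room temperature, remaining ATP was read by Kinase-Glo Plus luminescence.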

[2] = biological target: recombinant mouse GALK1 (Mus musculus, UniProt Q9R0N0); test: mGALK1 biochemical activity assay (Kinase-Glo Plus, ATP depletion)
Sequence of recombinant mouse GALK1 (Q9R0N0 whole entry): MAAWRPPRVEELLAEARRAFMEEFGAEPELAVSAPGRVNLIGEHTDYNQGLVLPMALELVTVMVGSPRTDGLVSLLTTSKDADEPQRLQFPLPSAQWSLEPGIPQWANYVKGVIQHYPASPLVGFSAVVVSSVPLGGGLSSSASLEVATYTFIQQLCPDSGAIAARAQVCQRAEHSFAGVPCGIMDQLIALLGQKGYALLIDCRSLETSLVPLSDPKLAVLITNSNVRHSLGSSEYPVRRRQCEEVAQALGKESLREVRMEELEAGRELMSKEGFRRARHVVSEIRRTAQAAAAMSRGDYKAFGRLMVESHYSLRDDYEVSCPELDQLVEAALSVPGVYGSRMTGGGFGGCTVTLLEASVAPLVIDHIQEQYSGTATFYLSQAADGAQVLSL
Summary of the method: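 Recombinant GALK1 (5 nM) with 100 μM galactose; GALK1 turnover read as ATP depletion by Kinase-Glo Plus luminescence. Reaction ran 1 h at room temperature before detection reagent was added.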

[3] = PAMPA permeability
[4] = aqueous kinetic solubility
[5] = rat microsomal stability (RLM); conditions: microsomal half-life
[6] = Tables 2-15, 35 μM ATP, 100 μM galactose, 1 h, bracketed figure after some values (e.g. −1.2) is undefined and not reported, read-out: hGALK IC50
[7] = recombinant human GALK1, Kinase-Glo Plus ATP depletion, read-out: hGALK
[8] = Tables 2-15, 35 μM ATP, 100 μM galactose, 1 h, bracketed figure after some values is undefined and not reported, read-out: mGALK IC50
[9] = recombinant mouse GALK1, Kinase-Glo Plus ATP depletion, read-out: mGALK
[10] = recombinant mouse GALK1, Kinase-Glo Plus ATP depletion
[11] = recombinant human GALK1, Kinase-Glo Plus ATP depletion
[12] = Tables 2-15, 35 μM ATP, 100 μM galactose, 1 h, bracketed figure after some values is undefined and not reported

Sequence of recombinant human GALK1 (P51570 whole entry): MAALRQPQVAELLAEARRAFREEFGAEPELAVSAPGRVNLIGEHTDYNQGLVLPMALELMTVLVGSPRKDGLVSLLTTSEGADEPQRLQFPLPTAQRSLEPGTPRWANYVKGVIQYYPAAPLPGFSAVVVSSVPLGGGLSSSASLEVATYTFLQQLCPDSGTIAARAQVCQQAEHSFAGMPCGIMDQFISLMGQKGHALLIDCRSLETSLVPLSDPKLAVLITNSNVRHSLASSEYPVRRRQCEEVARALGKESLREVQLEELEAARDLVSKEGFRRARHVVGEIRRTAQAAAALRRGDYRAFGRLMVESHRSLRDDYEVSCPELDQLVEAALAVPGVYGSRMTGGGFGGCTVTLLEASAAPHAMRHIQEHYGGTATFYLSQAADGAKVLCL

Structure (SMILES)	IC50 [1, 6]	IC50 [1, 7]	IC50 [2, 8]	IC50 [2, 9]	Perm. (1 × 10^−6 cm/sec) [3]	Sol. [4]	Metab. Stabil. (m) [5]	mGALK (μM) [2, 10]	hGALK (μM) [1, 11]	mGALK IC50 [2, 12]
CC1=C(C(=O)Nc2cc(B(O)O)ccn2)C(c2ccc(C)cc2Cl)N=C(Nc2nc3ccc(F)cc3o2)N1 (stereo not shown) [Compound 92, (2-(4-(2-chloro-4-methylphenyl)-2-((6-fluorobenzo[d]oxazol-2-yl)amino)-6-methyl-1,4-dihydropyrimidine-5-carboxamido)pyridin-4-yl)boronic acid]	1.93 µM	1.93 µM	10.9 µM	10.9 µM	<3.2 1 × 10^−6 cm/sec	<1 µg/mL	14.13 m	–	–	–
COc1ccc2nc(NC3=NC(c4ccccc4Cl)C(C(=O)Nc4nnc(-c5cccnc5)s4)=C(C)N3)oc2c1 (stereo not shown) [Compound 93, 4-(2-chlorophenyl)-2-((6-methoxybenzo[d]oxazol-2-yl)amino)-6-methyl-N-(5-(pyridin-3-yl)-1,3,4-thiadiazol-2-yl)-1,4-dihydropyrimidine-5-carboxamide]	–	9.68 µM	–	21.7 µM	<4.4 1 × 10^−6 cm/sec	<1 µg/mL	>30 m	–	–	–
COc1ccc2oc(NC3=NC(c4ccccc4Cl)C(C(=O)Nc4nnc(-c5cccnc5)s4)=C(C)N3)nc2c1 (stereo not shown) [Compound 95, 4-(2-chlorophenyl)-2-((5-methoxybenzo[d]oxazol-2-yl)amino)-6-methyl-N-(5-(pyridin-3-yl)-1,3,4-thiadiazol-2-yl)-1,4-dihydropyrimidine-5-carboxamide]	–	–	–	–	<19.1 1 × 10^−6 cm/sec	<1 µg/mL	>30 m	in- active	in- active	–
CC1=C(C(=O)Nc2nnc(-c3cccnc3)s2)C(c2ccccc2Cl)N=C(Nc2nc3cc(F)ccc3o2)N1 (stereo not shown) [Compound 97, 4-(2-chlorophenyl)-2-((5-fluorobenzo[d]oxazol-2-yl)amino)-6-methyl-N-(5-(pyridin-3-yl)-1,3,4-thiadiazol-2-yl)-1,4-dihydropyrimidine-5-carboxamide]	–	5.44 µM	–	19.3 µM	<1.5 1 × 10^−6 cm/sec	<1 µg/mL	>30 m	–	–	–
CC1=C(C(=O)Nc2cc(C(=O)O)ccn2)C(c2ccc(C)cc2Cl)N=C(Nc2nc3ncccc3o2)N1 (stereo not shown) [Compound 102, 2-(4-(2-chloro-4-methylphenyl)-6-methyl-2-(oxazolo[4,5-b]pyridin-2-ylamino)-1,4-dihydropyrimidine-5-carboxamido)isonicotinic acid]	4.85 µM	4.85 µM	19.3 µM	19.3 µM	<1 1 × 10^−6 cm/sec	>51 µg/mL	>30 m	–	–	–
CC1=C(C(=O)NCc2cnn(C)c2)C(c2ccc(C)cc2Cl)N=C(Nc2nc3cnccc3o2)N1 (stereo not shown) [Compound 104, 4-(2-chloro-4-methylphenyl)-6-methyl-N-((1-methyl-1H-pyrazol-4-yl)methyl)-2-(oxazolo[4,5-c]pyridin-2-ylamino)-1,4-dihydropyrimidine-5-carboxamide]	3.06 µM	3.06 µM	12.2 µM	12.2 µM	127.62 1 × 10^−6 cm/sec	>49 µg/mL	5.12 m	–	–	–
CC1=C(C(=O)NCc2cnn(C)c2)C(c2ccc(C)cc2Cl)N=C(Nc2nc3ncccc3o2)N1 (stereo not shown) [Compound 105, 4-(2-chloro-4-methylphenyl)-6-methyl-N-((1-methyl-1H-pyrazol-4-yl)methyl)-2-(oxazolo[4,5-b]pyridin-2-ylamino)-1,4-dihydropyrimidine-5-carboxamide]	15.3 µM	15.3 µM	–	–	62.84 1 × 10^−6 cm/sec	>49 µg/mL	6.149 m	in- active	–	inactive
CC1=C(C(=O)NCc2cnn(C)c2)C(c2ccc(C)cc2Cl)N=C(Nc2nc3cccnc3o2)N1 (stereo not shown) [Compound 107, 4-(2-chloro-4-methylphenyl)-6-methyl-N-((1-methyl-1H-pyrazol-4-yl)methyl)-2-(oxazolo[5,4-b]pyridin-2-ylamino)-1,4-dihydropyrimidine-5-carboxamide]	17.2 µM	17.2 µM	–	–	355.44 1 × 10^−6 cm/sec	4.8 µg/mL	3.664 m	in- active	–	inactive
CC1=C(C(=O)Nc2cc(C(=O)O)ccn2)C(c2ccc(C)cc2Cl)N=C(Nc2nc3cccnc3o2)N1 (stereo not shown) [Compound 108, 2-(4-(2-chloro-4-methylphenyl)-6-methyl-2-(oxazolo[5,4-b]pyridin-2-ylamino)-1,4-dihydropyrimidine-5-carboxamido)isonicotinic acid]	12.2 µM	12.2 µM	–	–	<1 1 × 10^−6 cm/sec	>51 µg/mL	>30 m	in- active	–	inactive

Further lines, results first:

IC50 [1, 6]	IC50 [1, 7]	IC50 [2, 8]	IC50 [2, 9]	Perm. (1 × 10^−6 cm/sec) [3]	Sol. [4]	Metab. Stabil. (m) [5]	mGALK (μM) [2, 10]	hGALK (μM) [1, 11]	mGALK IC50 [2, 12]	Structure (SMILES)
4.32 µM	4.32 µM	6.85 µM	6.85 µM	264.3 1 × 10^−6 cm/sec	6.2 µg/mL	17.58 m	–	–	–	CC1=C(C(=O)Nc2cc(N(C)C)ccn2)C(c2ccc(C)cc2Cl)N=C(Nc2nc3ccc(F)cc3o2)N1 (stereo not shown) [Compound 90, 4-(2-chloro-4-methylphenyl)-N-(4-(dimethylamino)pyridin-2-yl)-2-((6-fluorobenzo[d]oxazol-2-yl)amino)-6-methyl-1,4-dihydropyrimidine-5-carboxamide]
–	27.3 µM	–	–	<10.3 1 × 10^−6 cm/sec	<1 µg/mL	>30 m	in- active	–	–	CC1=C(C(=O)Nc2nnc(-c3cccnc3)s2)C(c2ccccc2Cl)N=C(Nc2nc3ccc(Cl)cc3o2)N1 (stereo not shown) [Compound 94, 2-((6-chlorobenzo[d]oxazol-2-yl)amino)-4-(2-chlorophenyl)-6-methyl-N-(5-(pyridin-3-yl)-1,3,4-thiadiazol-2-yl)-1,4-dihydropyrimidine-5-carboxamide]
–	4.85 µM	–	10.9 µM	<1.5 1 × 10^−6 cm/sec	<1 µg/mL	>30 m	–	–	–	CC1=C(C(=O)Nc2nnc(-c3cccnc3)s2)C(c2ccccc2Cl)N=C(Nc2nc3cc(C)ccc3o2)N1 (stereo not shown) [Compound 96, 4-(2-chlorophenyl)-2-((5-methylbenzo[d]oxazol-2-yl)amino)-6-methyl-N-(5-(pyridin-3-yl)-1,3,4-thiadiazol-2-yl)-1,4-dihydropyrimidine-5-carboxamide]
–	6.11 µM	–	19.3 µM	<3.4 1 × 10^−6 cm/sec	<1 µg/mL	>30 m	–	–	–	CC1=C(C(=O)Nc2nnc(-c3cccnc3)s2)C(c2ccccc2Cl)N=C(Nc2nc3cc(Cl)ccc3o2)N1 (stereo not shown) [Compound 98]
–	–	–	–	<2.9 1 × 10^−6 cm/sec	<1 µg/mL	>30 m	in- active	in- active	–	CC1=C(C(=O)Nc2nnc(-c3cccnc3)s2)C(c2ccccc2Cl)N=C(Nc2nc3ccc(C)cc3o2)N1 (stereo not shown) [Compound 99, 4-(2-chlorophenyl)-2-((6-methylbenzo[d]oxazol-2-yl)amino)-6-methyl-N-(5-(pyridin-3-yl)-1,3,4-thiadiazol-2-yl)-1,4-dihydropyrimidine-5-carboxamide]
–	17.2 µM	–	38.5 µM	<9.9 1 × 10^−6 cm/sec	<1 µg/mL	>30 m	–	–	–	CC1=C(C(=O)Nc2nnc(-c3cccnc3)s2)C(c2ccccc2Cl)N=C(Nc2nc3ccc(F)cc3o2)N1 (stereo not shown) [Compound 100, 4-(2-chlorophenyl)-2-((6-fluorobenzo[d]oxazol-2-yl)amino)-6-methyl-N-(5-(pyridin-3-yl)-1,3,4-thiadiazol-2-yl)-1,4-dihydropyrimidine-5-carboxamide]
0.86 µM	0.86 µM	6.85 µM	6.85 µM	<1 1 × 10^−6 cm/sec	>51 µg/mL	>30 m	–	–	–	CC1=C(C(=O)Nc2cc(C(=O)O)ccn2)C(c2ccc(C)cc2Cl)N=C(Nc2nc3cnccc3o2)N1 (stereo not shown) [Compound 106, 2-(4-(2-chloro-4-methylphenyl)-6-methyl-2-(oxazolo[4,5-c]pyridin-2-ylamino)-1,4-dihydropyrimidine-5-carboxamido)isonicotinic acid]
3.06 µM	3.06 µM	4.32 µM	4.32 µM	<1.8 1 × 10^−6 cm/sec	>52 µg/mL	>30 m	–	–	–	CC1=C(C(=O)Nc2cc(C(=O)O)ccn2)C(c2ccc(C)cc2Cl)N=C(Nc2nc3c(o2)CCCC3)N1 (stereo not shown) [Compound 109, 2-(4-(2-chloro-4-methylphenyl)-6-methyl-2-((4,5,6,7-tetrahydrobenzo[d]oxazol-2-yl)amino)-1,4-dihydropyrimidine-5-carboxamido)isonicotinic acid]
